# According to patent US20120052122A1, “Treatment Of Chronic Obstructive Pulmonary Disease With Phosphodiesterase-4 Inhibitor” (Nycomed GmbH, priority 2010, published 2012):
# “And” between values parts separate entries of the source, which are not always exact repeats. Identical values can stand only once. Like-named read-outs stand apart in the source and are kept apart here.
# Tests used:
# COPD patients = test: Adverse events in 14 double-blind, placebo-controlled Phase II/III studies; assay type: in vivo, human; settings: 14 Phase II/III studies, N = 6563
# From the text: The population was 25 to 93 years old (median age 64), 72% were male, and 89% were white.
# PDE3 = PDE3 inhibition; assay type: biochemical; settings: at the doses administered
# rabbits = test: Embryo-fetal development studies in rabbits; assay type: in vivo, rabbit; settings: up to 0.8 mg/kg/day
# mouse = test: Labor and delivery in the mouse; assay type: in vivo
# From the text: Roflumilast should not be used during labor and delivery.
# [1] = Phase I studies, single oral doses of 2,500 mcg and 5,000 mcg; assay type: in vivo, human; settings: single oral doses of 2,500 mcg and one single dose of 5,000 mcg
# Plasma protein binding = assay type: in vitro ADME
# [2] = Standard battery of genotoxicity assays in vitro and in vivo
# [3] = Non-clinical safety pharmacology and toxicity studies
# From the text: Non-clinical data reveal no special hazard for humans based on conventional studies of safety pharmacology and repeated dose toxicity. Furthermore, there is no evidence of immunotoxic, skin sensitizing or phototoxic potential.
# [4] = test system: patients with COPD and chronic cough and sputum production
# From the text: Their postbronchodilator FEV1 was 50% or less than the predicted value.
# Patients could use short acting β2 agonists as needed and could continue treatment with long acting β2 agonists or short acting anti-cholinergic drugs at stable doses. However, inhaled corticosteroids and long acting anti-cholinergic drugs were not allowed during the study. Eligible patients were stratified according to their use of long acting β2 agonists and smoking status.
# The primary endpoints were the change in prebronchodilator FEV1 during treatment and the rate of COPD exacerbations, defined as moderate if they required treatment with oral or parenteral corticosteroids, or severe if they were associated with hospital admission or death. […] Additionally, data for the total number of COPD exacerbations (as defined above together with episodes treated with antibiotics alone) and a range of spirometric outcomes were gathered.
# A negative binominal regression analysis was done to assess the robustness of the results against the distributional assumptions. Data were analyzed in the two studies separately and in a pooled analysis. Changes were analyzed from baseline in prebronchodilator and postbronchodilator FEV1 using a repeated-measures analysis of covariance with all data available for patients during the 52-week treatment. (Reference 18) A Cox proportional hazard model was used to test for differences in time-to-event data. For analysis of the concentrations of C-reactive protein, an analysis of covariance model was used, with the method of the last observation carried forward for the log-transformed data for concentrations. For the regression models (analysis of covariance, Cox, and Poisson), the covariates included treatment, age, sex, smoking status (current or former smoker), country, and treatment with long acting β2 agonists. In the Cox analysis, country was included as a stratum. In the Poisson regression analysis, baseline postbronchodilator FEV1 (% of predicted value) was also included as a covariate. To address the issue of multiple comparisons, a hierarchical hypothesis-testing approach was adopted, If the primary outcomes were positive, the key secondary outcomes were tested in the order above. If a significant difference between treatments was not obtained for the primary or key secondary outcomes, all subsequent analyses were considered exploratory.
# In the one-year trials, long-acting beta-2 agonists (LABA) were allowed and used in approximately 50% of the study population. The use of inhaled corticosteroids was terminated at randomization. Lung function (pre-bronchodilator forced expiratory volume in one second, FEV1) and the rate of moderate exacerbations (requiring intervention with systemic glucocorticosteroids) or severe exacerbations (resulting in hospitalization and/or leading to death) were primary endpoints. Secondary endpoints in both studies included further evaluation of exacerbations and lung function parameters, dyspnea, and use of reliever medication.
# [5] = test system: CYP 1A2, 2A6, 2B6, 2C8, 2C9, 2C19, 2D6, 2E1, 3A4/5, or 4A9/11
# patients with COPD = settings: Reference 13; cited from earlier work
# [6] = test system: human airway epithelial cells; test: MUC5AC formation; settings: human airway epithelial cells and animal experiments
# animal models = test: Smoke-induced lung damage animal models; settings: animal models in vivo
# [7] = test system: endotoxin challenged healthy volunteers; test: Endotoxin challenge in healthy volunteers
# [8] = test system: cytokines and reactive oxygen species from cells and lung tissue; test: Release of inflammatory mediators in experimental animals; settings: cells and lung tissue in vitro and in vivo
# [9] = Pharmacokinetics in special populations (total PDE4 inhibitory activity); settings: in vivo
# [10] = test system: patients with COPD and chronic cough and sputum production; test: M2-125 study: 52-week placebo-controlled trial of oral roflumilast 500 μg once a day
# [11] = M2-124 and M2-125 pooled, 52 weeks
# [12] = M2-124 and M2-125 pooled, 52 weeks, mean
# [13] = M2-124 and M2-125 pooled, 52 weeks, mean (SE)
# [14] = M2-124 and M2-125 pooled, Roflumilast vs Placebo
# [15] = M2-124 and M2-125 pooled, Roflumilast vs Placebo, listed as roflumilast
smiles,measurement,setting,value
"O=C(Nc1c(Cl)cncc1Cl)c1ccc(OC(F)F)c(OCC2CC2)c1 [Roflumilast, N-(3,5-dichloropyridin-4-yl)-3-cyclopropylmethoxy-4-difluoromethoxy-benzamide]","Treatment-emergent adverse event Diarrhea, incidence",COPD patients; 250 mcg or 500 mcg per day,10%
same,"Treatment-emergent adverse event Abdominal pain, incidence",COPD patients,2%
same,"Treatment-emergent adverse event Back pain, incidence",COPD patients,3%
same,"Treatment-emergent adverse event Decreased appetite, incidence",COPD patients,2%
same,"Treatment-emergent adverse event Dizziness, incidence",COPD patients,2%
same,"Treatment-emergent adverse event Gastritis, incidence",COPD patients,1%
same,"Treatment-emergent adverse event Headache, incidence",COPD patients,4%
same,"Treatment-emergent adverse event Insomnia, incidence",COPD patients,2%
same,"Treatment-emergent adverse event Nausea, incidence",COPD patients,5%
same,"Treatment-emergent adverse event Tremor, incidence",COPD patients,2%
same,"Treatment-emergent adverse event Weight decreased, incidence",COPD patients,6%
same,Inhibitory effect on PDE3,PDE3,no appreciable inhibitory effect
same,Teratogenicity,rabbits; oral,not teratogenic
same,Post-implantive losses,rabbits,not seen
same,Oral dose with signs of tocolytic activity resulting in delivery retardation and decreased postnatal survival,mouse,≥ 2 mg/kg/day
same,Symptoms observed at an increased rate,[1],"headache, gastrointestinal disorders, dizziness, palpitations, lightheadedness, clamminess and arterial hypotension"
same,fraction unbound,Plasma protein binding,~0.01
same,Genotoxic potential,[2],did not reveal a genotoxic potential
same,"Immunotoxic, skin sensitizing or phototoxic potential",[3],no evidence
same,Change in C-reactive protein from baseline to last postrandomisation visit,[4]; M2-124 and M2-125 pooled,1.1; n = 1371 mg/L
same,Median time to first exacerbation (moderate or severe) [IQR],[4]; M2-124 and M2-125 pooled,80.0 (28.0-190.0) days
same,Median time to second exacerbation (moderate or severe) [IQR],[4]; M2-124 and M2-125 pooled,177.0 (92.0-262.0) days
same,"Time to mortality (mean, SD)",[4]; M2-124 and M2-125 pooled,206.1 days
same,"Exacerbations moderate or severe, mean rate [95% CI]",[4]; [11],"1.14 (1.05-1.24); per patient, per year"
same,"Exacerbations moderate, mean rate [95% CI]",[4]; [11],"0.99 (0.91-1.08); per patient, per year"
same,"Exacerbations severe, mean rate [95% CI]",[4]; [11],"0.12 (0.10-0.16); per patient, per year"
same,"Exacerbations treated with systemic corticosteroids, antibiotics, or both, mean rate [95% CI]",[4]; [11],"1.13 (1.04-1.23); per patient, per year"
same,Change in postbronchodillator FEV1/FVC,[4]; [12],0.517%
same,Change in prebronchodillator FEV1/FVC,[4]; [12],0.247%
same,Change in postbronchodillator FEF25-75,[4]; [13],21 (4); mL/s
same,Change in postbronchodillator FEV1,[4]; [13],50 (6); mL
same,Change in postbronchodillator FVC,[4]; [13],67 (10); mL
same,Change in postbronchodillator PEF,[4]; [13],4.93 (1.05); L/min
same,Change in prebronchodillator FEF25-75,[4]; [13],16 (4); mL/s
same,Change in prebronchodillator FEV1,[4]; [13],40 (6); mL
same,Change in prebronchodillator FVC,[4]; [13],64 (10); mL
same,Change in prebronchodillator PEF,[4]; [13],3.69 (1.02); L/min
same,"Change in C-reactive protein from baseline to last postrandomisation visit, difference",[4]; [14],Difference 1.0 mg/L
same,"Change in postbronchodillator FEF25-75, difference",[4]; [14],Difference 19 mL/s
same,"Change in postbronchodillator FEV1, difference",[4]; [14],Difference 55 mL
same,"Change in postbronchodillator FEV1/FVC, difference",[4]; [14],Difference 0.426%
same,"Change in postbronchodillator FVC, difference",[4]; [14],Difference 101 mL
same,"Change in postbronchodillator PEF, difference",[4]; [14],Difference 4.72 L/min
same,"Change in prebronchodillator FEF25-75, difference",[4]; [14],Difference 20 mL/s
same,"Change in prebronchodillator FEV1, difference",[4]; [14],Difference 48 mL
same,"Change in prebronchodillator FEV1/FVC, difference",[4]; [14],Difference 0.393%
same,"Change in prebronchodillator FVC, difference",[4]; [14],Difference 98 mL
same,"Change in prebronchodillator PEF, difference",[4]; [14],Difference 3.53 L/min
same,"EQ-5D total score, difference",[4]; [14],0.0023
same,"TDI focal score, difference",[4]; [14],Difference 0.3
same,"Change in postbronchodillator FEV1, difference",[4]; [15],55 mL
same,"Change in prebronchodillator FEV1, difference",[4]; [15],48 mL
same,"TDI focal score, difference",[4]; [15],0.25
same,EQ-5D total score,"[4]; M2-124 and M2-125 pooled, mean",0.0072
same,TDI focal score,"[4]; M2-124 and M2-125 pooled, mean (SE)",0.7 (0.1);
same,Probability of withdrawal due to adverse events in the first 12 weeks,"[4]; human, in vivo",8%
same,Subsequent probability of withdrawal because of adverse events,"[4]; human, in vivo",9%
same,"Adverse events reported, patients","[4]; human, in vivo, 52 weeks",1040 (67%) number (%)
same,"Atrial fibrillation, patients","[4]; human, in vivo, 52 weeks",17 (1%) number (%)
same,Discontinuations associated with adverse events,"[4]; human, in vivo, 52 weeks",219 [14%] number [%]
same,Reported cardiovascular adverse events,"[4]; human, in vivo, 52 weeks",108 [7%] number [%]
same,"Serious adverse events reported, patients","[4]; human, in vivo, 52 weeks",301 (19%) number (%)
same,"Vomiting, patients","[4]; human, in vivo, 52 weeks",17 (1%) number (%)
same,Incidence of pneumonia or other pulmonary infections,[4]; in vivo,did not increase
same,Mean absolute weight change over the 1-year period,[4]; in vivo,-2.1 kg
same,Neurological or cardiac toxicity,[4]; in vivo,No significant neurological or cardiac toxicity
same,Patients with a decrease of body weight,[4]; in vivo,62%
same,"Weight loss in patients not reporting diarrhea, nausea, vomiting, or headache",[4]; in vivo,2.02 kg
same,"Weight loss in patients reporting diarrhea, nausea, vomiting, or headache",[4]; in vivo,2.60 kg
same,Number of patients experiencing a moderate exacerbation,[4]; pooled,624
same,Number of patients experiencing a severe exacerbation,[4]; pooled,157
same,"Estimated rate of moderate or severe exacerbations per patient per year, lower than placebo",[4]; pooled analysis,17%
same,"Exacerbations (excluding severe events) requiring systemic corticosteroids or antibiotics, or both, reduction vs placebo",[4]; pooled analysis,16%
same,Mean prebronchodilator FEV1 increase with long acting β2 agonist,"[4]; pooled, compared to placebo, concomitant LABA",46 mL
same,Mean prebronchodilator FEV1 increase without long acting β2 agonist,"[4]; pooled, compared to placebo, no concomitant LABA",50 mL
same,"Inhibition of CYP 1A2, 2A6, 2B6, 2C8, 2C9, 2C19, 2D6, 2E1, 3A4/5, or 4A9/11",[5],do not inhibit
same,"Airway inflammation, sputum neutrophil and eosinophil counts",patients with COPD,reduces airway inflammation
same,Formation of MUC5AC,[6],inhibited
same,Smoke-induced destruction of lung parenchyma,animal models,reduced
same,Influx of neutrophils and eosinophils into the airways,[7],attenuated
same,Release of inflammatory mediators (cytokines and reactive oxygen species),[8],suppressed
same,Total PDE4 inhibitory activity in smokers,[9],slightly decreased
same,Total PDE4 inhibitory activity in the elderly,[9],increased
same,Total PDE4 inhibitory activity in women compared with men,[9],increased
same,Change in C-reactive protein from baseline to last postrandomisation visit,[10],1.1; n = 680 mg/L
same,Median time to first exacerbation (moderate or severe) [IQR],[10],73.0 (26.0-195.0); days
same,Median time to second exacerbation (moderate or severe) [IQR],[10],188.0 (84.0-281.0) days
same,Number of patients needed to treat to prevent one moderate or severe exacerbation per year,[10],3.6 and 3.64
same,"Time to mortality (mean, SD)",[10],201.0 days
same,"Exacerbations moderate or severe, mean rate [95% CI]",[10]; 52 weeks,"1.21 (1.07-1.36); per patient, per year"
same,"Exacerbations moderate, mean rate [95% CI]",[10]; 52 weeks,"1.04 (0.92-1.18); per patient, per year"
same,"Exacerbations severe, mean rate [95% CI]",[10]; 52 weeks,"0.14 (0.10-0.20); per patient, per year"
same,"Exacerbations treated with systemic corticosteroids, antibiotics, or both, mean rate [95% CI]",[10]; 52 weeks,"1.17 (1.04-1.31); per patient, per year"
same,Change in postbronchodillator FEV1/FVC,"[10]; 52 weeks, mean",0.552%
same,Change in prebronchodillator FEV1/FVC,"[10]; 52 weeks, mean",0.200%
same,Change in postbronchodillator FEF25-75,"[10]; 52 weeks, mean (SE)",21 (5); n = 724 mL/s
same,Change in postbronchodillator FEV1,"[10]; 52 weeks, mean (SE)",44 (7); n = 724 mL
same,Change in postbronchodillator FVC,"[10]; 52 weeks, mean (SE)",58 (13); mL
same,Change in postbronchodillator PEF,"[10]; 52 weeks, mean (SE)",1.93 (1.49); L/min
same,Change in prebronchodillator FEF25-75,"[10]; 52 weeks, mean (SE)",15 (5); n = 730 mL/s
same,Change in prebronchodillator FEV1,"[10]; 52 weeks, mean (SE)",33 (7); n = 730 mL
same,Change in prebronchodillator FVC,"[10]; 52 weeks, mean (SE)",60 (14); mL
same,Change in prebronchodillator PEF,"[10]; 52 weeks, mean (SE)",0.75 (1.45); L/min
same,"Adverse event Influenza, difference",[10]; Roflumilast vs Placebo,−0.99% (−2.51 to 0.53)
same,"Adverse event Upper respiratory tract infection, difference",[10]; Roflumilast vs Placebo,−0.57% (−2.75 to 1.62)
same,"Change in C-reactive protein from baseline to last postrandomisation visit, difference",[10]; Roflumilast vs Placebo,Difference 1.1 mg/L
same,"Change in postbronchodillator FEF25-75, difference",[10]; Roflumilast vs Placebo,Difference 29 (18 mL/s
same,"Change in postbronchodillator FEV1, difference",[10]; Roflumilast vs Placebo,Difference 61 (44 mL
same,"Change in postbronchodillator FEV1/FVC, difference",[10]; Roflumilast vs Placebo,Difference 0.668%
same,"Change in postbronchodillator FVC, difference",[10]; Roflumilast vs Placebo,Difference 103 mL
same,"Change in postbronchodillator PEF, difference",[10]; Roflumilast vs Placebo,Difference 5.07 L/min
same,"Change in prebronchodillator FEF25-75, difference",[10]; Roflumilast vs Placebo,Difference 25 (13 mL/s
same,"Change in prebronchodillator FEV1, difference",[10]; Roflumilast vs Placebo,Difference 58 (41 mL
same,"Change in prebronchodillator FEV1/FVC, difference",[10]; Roflumilast vs Placebo,Difference 0.510%
same,"Change in prebronchodillator FVC, difference",[10]; Roflumilast vs Placebo,Difference 108 mL
same,"Change in prebronchodillator PEF, difference",[10]; Roflumilast vs Placebo,Difference 3.85 L/min
same,"EQ-5D total score, difference",[10]; Roflumilast vs Placebo,Difference 0.0106
same,"TDI focal score, difference",[10]; Roflumilast vs Placebo,Difference 0.3
same,"Change in prebronchodillator FVC, difference","[10]; Roflumilast vs Placebo, listed as roflumilast",108 mL
same,EQ-5D total score,[10]; mean,0.0100
same,TDI focal score,[10]; mean (SE),0.7 (0.1);
same,"Adverse event Influenza, patients",[10]; n = 778,12 (2%) number (%)
